The results in this text go back to patent US8304440B2, “Combination of a bis-thiazolium salt or a precursor thereof and artemisinin or a derivative thereof for treating acute malaria” (Sanofi, priority 2008, dated 2012).

In general, ED50 refers to the midpoint of the dose-response relation. Higher therefore signals weaker potency.

SMILES strings stand for the structures.

This assay deals with Plasmodium vinckei petteri (strain 279 BY). As to the kind of experiment: In vivo measurement of the antimalarial activity in mice infected with Plasmodium vinckei petteri (4-day ip treatment). The arrangement: species or system Plasmodium vinckei petteri in female Swiss mice. The source says: • ED50=dose in mg/kg/day which brings about a 50% decrease in parasitaemia, observed in the infected mice, • ED90=dose in mg/kg/day which brings about a 90% decrease in parasitaemia, observed in the infected mice, • ip=intraperitoneal administration, • iv=intravenous administration, • ir=intrarectal administration.
On day 0 (D0), female “Swiss” mice (OF1, 22-26 g) (Charles River Laboratories France, 59 rue de la Paix, 76410 Saint-Aubin-les-Elbeuf) are inoculated, by iv injection in the caudal vein, with 10^8 parasitized erythrocytes suspended in 200 μl of NaCl (0.9%). The parasites used are of Plasmodium vinckei petteri type (strain 279 BY, supplied by Dr. I Landau, Paris, France).
The injection of 10^8 parasitized erythrocytes results, at day 1 (D1), in a parasitemia level of between 5% and 10% (7.2%±0.2%). The Plasmodium vinckei petteri strain is maintained by weekly infection in mice with 10^7 to 10^8 parasitized erythrocytes suspended in a saline phosphate buffer (0.9%) (infection by intraperitoneal administration).
The products are dissolved in a 0.3M phosphate buffer (pH=8.1). The final concentration of the T3 solution is between 40 and 200 mg/l depending on the dose. The final concentration of the artesunate solution is between 100 and 500 mg/l depending on the dose. The products are administered ip. The administration volume is of the order of 100 μl, but depends on the weight of the mouse.
The mice are treated once a day for 4 days, on days D1, D2, D3 and D4 (Peters, W., J. H. Portus, and B. L. Robinson. 1975. The chemotherapy of rodent malaria. XXII. The value of drug-resistant strains of P. berghei in screening for blood schizonticidal activity. Ann. Trop. Med. Parasitol. 69:155-171; and: Ancelin M L, Calas M., Bonhoure A., Herbute S, and Vial H., In vivo antimalarial activity of mono and bis quaternary ammonium salts interfering with Plasmodium phospholipid metabolism. Antimicrob. Agents Chemother., 2003, 47, 2598-2605). Four mice are used per dose.
The animal is given, by ip administration, according to the case, T3, artesunate or the mixture of the two active ingredients solubilized.
At the 5th day, a few drops of blood are taken from the tail of the mouse in order to determine the parasitemia by FACS (fluorescence-activated cell sorter) and to perform a blood smear. The parasitemia is first determined by FACS on 20 000 cells. The red blood cells taken for the FACS are fixed with glutaraldehyde and then labeled with a fluorochrome (YOYO1®) which labels DNA and therefore only the parasitized cells (Barkan, D., Ginsburg, H., and Golenser, J. 2000. Optimisation of flow cytometric measurement of parasitaemia in plasmodium-infected mice. Int. J. Parasitol. 30: 649-653). The parasitemias below 15% are subsequently recounted on smears. The smears are fixed with methanol and then stained with Giemsa stain. The number of parasitized blood cells is counted under a microscope. The parasitemia is expressed as percentage of infected erythrocytes present in the specimen, on a sample of 2000 cells. The ED50 and ED90 values are determined at D5. The parasitemia is determined from the 1st to the 10th day of treatment, and then at the 15th, 22nd and 47th days.
The curative dose is the dose of product which ensures the survival of the entire treated batch of animals after one month.
0% inhibition corresponds to the mean of the parasitemias observed in the nontreated, infected mice. 100% inhibition corresponds to a very weak or null parasitemia, below 0.01%. The ED50 values are determined by linear interpolation of the dose-response curve represented in logarithm of concentrations.

For the compound `C[C@H]1[C@H](OC(=O)CCC(=O)O)O[C@@H]2O[C@@]3(C)CC[C@H]4[C@H](C)CC[C@@H]1[C@@]24OO3` [artesunate, reference compound], where the note is “Artesunate 2.5 mg/kg/d alone, ip D1-D4, D5”, the “parasitaemia D5” value was 53.20%. Where the note is “Artesunate 2.5 mg/kg/d alone, ip, D1 (first treatment day)”, the “parasitaemia D1” value came out at 7.00%. Also, the “parasitaemia D2” value (Artesunate 2.5 mg/kg/d alone, ip, D2 (24 h after first administration)) stood at 32.90%. Where the note is “artesunate 0.5 mg/kg/d”, the “activity on the parasitemia at 4 days” value is “completely inactive”. In addition, the “complete recovery after one month” value (artesunate alone 2.5 mg/kg/day) is “does not”. Also, for the setting “artesunate alone, at the doses tested, ip (FIG. 1)”, the “effect on parasitemia on the first day and following days” value was “does not reduce the parasitemia”. This compound came in with an ED50 (dose giving 50% decrease in parasitaemia, ip once a day D1-D4, determined at D5, compound alone) above 2.5 mg/kg/day.
